Measured values as given in patent EP3300733A1, “SUBSTANCE SELECTED AMONG IRINOTECAN, AN IRINOTECAN ACTIVE METABOLITE, 5-FLUORO-URACILE, A PHARMACEUTICAL SALT THEREOF AND A MIXTURE THEREOF, FOR USE IN THE TREATMENT OF FIBROSIS” (Centre Hospitalier Universitaire de Bordeaux, priority 2016, dated 2018).
Where two headings read alike, the source gives them in different places.

Columns and labels:
COL1A1 mRNA = test: mRNA expression of fibrosis genes in dermal fibroblasts (qPCR): COL1A1; assay type: cell-based; conditions: Homo sapiens, Fibroblast, read-out: average inhibition of COL1A1 mRNA levels
Description: (§1) Dermal fibroblasts were obtained from clinically affected skin of systemic sclerosis (SSC) patients and from healthy donors (H). The fibroblasts were grown in DMEM medium containing 2mM of L-glutamine supplemented with 10% foetal bovine serum (FCS) and penicillin/streptomycin antibiotics.
(§2) Dermal fibroblasts were plated in DMEM 10% FCS in 24-well plates. 24h before the experiment, medium was switched to DMEM 0% FCS. […] Supernatants were removed and plates were freezed at -80°c. Fibroblasts RNA from each well-plate were extracted with NucleoSpin® RNA Plus kit (Macherey-Nagel) according to manufacter's instructions. Triplicates were done and RNA from triplicates were pooled together. The quantity and quality of RNA were evaluated by capillary electrophoresis (Bioanalyzer 2100, Agilent).
(§3) RNA was used for cDNA synthesis using the Transcriptor Reverse Transcriptase kit (Roche). qPCR reactions were run on a Light Cycler (Roche Molecular Systems Inc.) according to manufacter's instructions. The relative gene expression levels of COL1A1, COL1A2, MMP1, TIMP1, CCL2 and ACTA2 were calculated using the ΔΔCt method. Target mRNA levels were normalized to GAPDH.
(§4) Expression of the genes in the different treated conditions was presented as fold change compared with the gene expression of the same non-treated fibroblasts arbitrary fixed at 100%.

COL1A2 mRNA = test: mRNA expression of fibrosis genes in dermal fibroblasts (qPCR): COL1A2; assay type: cell-based; conditions: Homo sapiens, Fibroblast, read-out: average inhibition of COL1A2 mRNA levels
Description: as §1, §2, §3, §4

MMP1 mRNA = test: mRNA expression of fibrosis genes in dermal fibroblasts (qPCR): MMP1; assay type: cell-based; conditions: Homo sapiens, Fibroblast, read-out: average inhibition of MMP1 mRNA levels
Description: as §1, §2, §3, §4

CCL2 mRNA = test: mRNA expression of fibrosis genes in dermal fibroblasts (qPCR): CCL2; assay type: cell-based; conditions: Homo sapiens, Fibroblast, 24h, SSc and healthy fibroblasts, vs non-treated, read-out: average inhibition of CCL2 mRNA levels
Description: as §1, §2, §3, §4

ACTA2 mRNA = test: mRNA expression of fibrosis genes in dermal fibroblasts (qPCR): ACTA2; assay type: cell-based; conditions: Homo sapiens, Fibroblast, read-out: average inhibition of ACTA2 mRNA levels
Description: as §1, §2, §3, §4

dermal fibroblasts = test: cytotoxicity on the fibroblasts (data not shown); assay type: cell-based, human
procollagen I [1] = test: release of procollagen I protein by dermal fibroblasts (ELISA), dose response; assay type: cell-based, human; conditions: 48h, both cell types (SSC and healthy fibroblasts), vs non-treated
Description: as §1
Dermal fibroblasts were plated in DMEM 10% FCS supplemented with 20µg/mL of vitamin C in 96-well plates. 24h before the experiment, medium was switched to DMEM 0% FCS supplemented with 20µg/mL of vitamin C. […] Supernatants were collected to evaluate the procollagen I release level by ELISA kit (ref MK101, supplier Takara) according to manufacter's instructions. Triplicates were done. The level of procollagen I release was presented as fold change compared with the procollagen I release by the same non-treated fibroblasts arbitrary fixed at 100%.

TIMP1 mRNA = test: mRNA expression of fibrosis genes in dermal fibroblasts (qPCR): TIMP1; assay type: cell-based; conditions: Homo sapiens, Fibroblast, read-out: average inhibition of TIMP1 mRNA levels
Description: as §1, §2, §3, §4

procollagen I [2] = test: effect of a combination of low SN38 and 5FU doses on procollagen I release (ELISA); assay type: cell-based, human; conditions: 5FU 1 µg/ml alone (condition B), 48h; patient SSC2, SSC3 or H2
Description: Dermal fibroblasts were plated in DMEM 10% FCS supplemented with 20µg/mL of vitamin C in 96-well plates. 24h before the experiment, medium was switched to DMEM 0% FCS supplemented with 20µg/mL of vitamin C. Cells were treated for 48h with SN38 (0.006 µg/mL), 5FU (1 µg/mL) or a combination (SN38 0.006 µg/mL and 5FU 1 µg/mL) in DMEM 0% FCS supplemented with 20µg/mL of vitamin C. Supernatants were collected to evaluate the procollagen I release level by ELISA kit (ref MK101, supplier Takara) according to manufacter's instructions. Triplicates were done. The level of procollagen I release was presented as fold change compared with the procollagen I release by the same non-treated fibroblasts arbitrary fixed at 100%.

[3] = tested on: diffuse cutaneous systemic sclerosis; conditions: cited from earlier work
diffuse scleroderma = test: clinical case: patient with diffuse scleroderma treated with chemotherapy; assay type: in vivo, human; conditions: methotrexate 7.5 mg to 10 mg per week for 5 years before admission
Text: A person was referred for fever and abdominal pain. Their medical history was mainly represented by a systemic scleroderma diagnosed 20 years before and with digestive, cutaneous and rheumatologic involvement. […] Blood test found anti topo-I antibodies to high level (141 IU/mL, normal range 0-29). […] The modified Rodnan score was 24/51.
Then, it was proposed to the patient 4 cycles of chemotherapy FOLFORINOX followed by rectal surgery.
The patient received 4 cycles of FOLFORINOX (oxaliplatine 85 mg/m^2, irinotecan 180 mg/m^2, 5-fluoro-uracil 400 mg/m^2 flash then 2400 mg/m^2 the following 46 hours). Cycles of chemotherapy were administered every 14 days on January 13 and 27, and February 11 and 25, 2014.
Then, the patient had surgery and according to post-surgical piece, it was realized 6 cycles of FOLFOX (folinic acid, oxaliplatine and 5-fluorouracil) with no new improvement during these last 6 cycles.

[4] = tested on: idiopathic pulmonary fibrosis; conditions: on one year, 72 week phase III trial; cited from earlier work
[5] = irinotecan 32 µM (highest dose), 24h, SSc and healthy fibroblasts, vs non-treated
[6] = all the doses used in the procollagen I release test (irinotecan 0.006-40 µg/ml, SN38 0.00006-0.6 µg/ml, 5FU 0.3-80 µg/ml)
[7] = 5FU 384 µM (highest dose), 24h, SSc and healthy fibroblasts, vs non-treated
[8] = control group (cyclophosphamide), share of patients

**Q.** What does the source list for CCc1c2c(nc3ccc(OC(=O)N4CCC(N5CCCCC5)CC4)cc13)-c1cc3c(c(=O)n1C2)COC(=O)[C@]3(O)CC [irinotecan, (S)-4,11-diethyl-3,4,12,14-tetrahydro-4-hydroxy-3,14-dioxo1H-pyrano[3',4':6,7]-indolizino[1,2-b]quinolin-9-yl-[1,4'bipiperidine]-1'-carboxylate]?
**A.** inhibition at 32 µM (COL1A1 mRNA; [5]): 27%; inhibition at 32 µM (COL1A2 mRNA; [5]): 22%; inhibition at 32 µM (MMP1 mRNA; [5]): 32%; inhibition at 32 µM (CCL2 mRNA; irinotecan 32 µM (highest dose)): 19%; inhibition at 32 µM (ACTA2 mRNA; [5]): 33%; cytotoxic on the fibroblasts (dermal fibroblasts; 3.2 µM and 32 µM): not cytotoxic; cytotoxic on the fibroblasts (dermal fibroblasts; [6]): not cytotoxic; release of procollagen I protein (procollagen I [1]; 40µg/mL): significantly decreased

**Q.** Which inhibition at 384 µM (COL1A1 mRNA; [7]) does the source give for O=c1[nH]cc(F)c(=O)[nH]1 [5FU, 5-Fluoro-1H,3H-pyrimidine-2,4-dione] here?
**A.** 17%

**Q.** What about the inhibition at 384 µM (COL1A2 mRNA; [7]) of the same compound?
**A.** 12%

**Q.** What about the inhibition at 384 µM (MMP1 mRNA; [7]) of the same compound?
**A.** 37%

**Q.** And the inhibition at 384 µM (TIMP1 mRNA; [7])?
**A.** 15%

**Q.** What about the inhibition at 384 µM (CCL2 mRNA; 5FU 384 µM (highest dose)) of the same compound?
**A.** 31%

**Q.** What about the “cytotoxic on the fibroblasts” value (dermal fibroblasts; 38.4 µM and 384 µM) of the same compound?
**A.** not cytotoxic

**Q.** What about the “cytotoxic on the fibroblasts” value (dermal fibroblasts; [6]) of the same compound?
**A.** not cytotoxic

**Q.** And the “release of procollagen I protein” value (procollagen I [1]; 80µg/mL)?
**A.** significantly decreased

**Q.** And the “procollagen I release” value (procollagen I [2])?
**A.** not observed

**Q.** What does the source list for O=P1(N(CCCl)CCCl)NCCCO1 (stereo not shown) [cyclophosphamide]?
**A.** events, cumulative ([3]; control group (cyclophosphamide), at 2 years): 18.2%; events, cumulative ([3]; control group (cyclophosphamide), at 4 years): 26%; events ([3]; control group (cyclophosphamide), during the first year, no treatment-related deaths): 10.4%; Grade 3 or 4 adverse events [3, 8]: 37.0%; Viral infections [3, 8]: 1.3%; events (deaths and irreversible organ failures) ([3]; control group (cyclophosphamide, n = 77), median follow-up of 5.8 years, 23 deaths and 8 irreversible organ failures): 31

**Q.** Which “impact on scleroderma evolution” value (diffuse scleroderma) does the source give for CN(Cc1cnc2nc(N)nc(N)c2n1)c1ccc(C(=O)N[C@@H](CCC(=O)O)C(=O)O)cc1 [methotrexate] here?
**A.** without substantial impact

**Q.** With Cc1ccc(=O)n(-c2ccccc2)c1 [Pirfenidone] as the compound, how does the “reduce decline in lung function (forced vital capacity, FCV)” value [4] read?
**A.** 4.4%

**Q.** What does the source list for CCc1c2c(nc3ccc(O)cc13)-c1cc3c(c(=O)n1C2)COC(=O)[C@]3(O)CC [SN38, 7-Ethyl-10-hydroxy-camptothecin]?
**A.** inhibition at 1 µM (COL1A1 mRNA; 24 h): 57.5%; inhibition at 1 µM (COL1A2 mRNA; 24 h): 52%; inhibition at 1 µM (MMP1 mRNA; 24 h): 42%; inhibition at 1 µM (TIMP1 mRNA; 24 h): 22%; inhibition at 1 µM (ACTA2 mRNA; 24 h): 55%; cytotoxic on the fibroblasts (dermal fibroblasts; 0.1 µM and 1 µM): not cytotoxic; cytotoxic on the fibroblasts (dermal fibroblasts; [6]): not cytotoxic; release of procollagen I protein (procollagen I [1]; 0.3 µg/mL): significantly decreased; release of procollagen I protein (procollagen I [1]; 0.6 µg/mL): significantly decreased
